According to patent US20080103158A1, “METHODS FOR TREATING DELAYING THE PROGRESSION OF ALZHEIMER'S DISEASE WITH HETEROCYCLIC COMPOUNDS” (ZENYAKU KOGYO KABUSHIKI KAISHA, priority 2006, published 2008):

Tested on: amyloid β deposition in the hippocampus
Experiment: Amyloid β deposition inhibitory activity: amyloid β immunohistochemistry of the hippocampus in senescene accelerated mice (SAMP8)
Format: in vivo
Settings: hippocampus immunohistochemistry
Experimental: Senescene accelerated mice (SAMP8) (male, 8 months old at the beginning of the study) were used for experiment. Approximately 0.1 mg/kg/day of Compound 1 was given in drinking water. Eight weeks after the dosing, the mouse brain was removed, Methacarn-fixed (methanol:chloroform:acetic acid=6:3:1), and paraffin-embedded. Then, sections of 8 μm in thickness were prepared using a microtome.
The sections were immunostained with streptavidin-biotin using a VECTASTATIN ABC kit. After one hour of incubation in 10% normal goat serum, the anti-amyloid β (Aβ) antibody was diluted with PBS to ten fold and incubated at 4° C. overnight. The following day, PBS rinsing, 1.5 hours of incubation with biotinylated anti-rabbit secondary antibody, PBS rinsing, and 1.5 hours of incubation with peroxidase-labeled streptavidin were conducted. The immunoreaction was visualized with DAB and specimens were prepared.
Immunoreactive Aβ-like granules in the hippocampus were counted under the microscope. The Aβ-like immunoreactive granule was observed as brown deposits in the hippocampus. The count was made for one section per individual.

Compound | amyloid β deposition (overall conclusion)
O=C1N=C2C=CC=CN2C12Cc1ccccc1C2 [Compound 1, spiro[imidazo[1,2-a]pyridin-2(3H)-one-3,2′-indan]] | inhibits amyloid β deposition

Same assay, conditions: hippocampus, one section per individual, oral 0.002, 0.01 and 0.1 mg/kg in drinking water for 2 months, FIG. 2

Compound | number of amyloid β-immunoreactive granules
O=C1N=C2C=CC=CN2C12Cc1ccccc1C2 [Compound 1, spiro[imidazo[1,2-a]pyridin-2(3H)-one-3,2′-indan]] | significantly (*) decreased

Same assay, conditions: male, 8 months old, Compound 1 in drinking water at oral dosage of 0.002, 0.01 and 0.1 mg/kg/day for 2 months, vs tap water

Compound | amyloid β-like immunoreactivity in the hippocampus
O=C1N=C2C=CC=CN2C12Cc1ccccc1C2 [Compound 1, spiro[imidazo[1,2-a]pyridin-2(3H)-one-3,2′-indan]] | reduced

Tested on: not listed separately
Experiment: preclinical study (safety)
Settings: not given

Compound | safety in the preclinical study
O=C1N=C2C=CC=CN2C12Cc1ccccc1C2 [Compound 1, spiro[imidazo[1,2-a]pyridin-2(3H)-one-3,2′-indan]] | highly safe

Tested on: not given
Experiment: not given
Settings: not given

Compound | melting point
Cc1ccc(CC2(Cc3ccc(C)cc3)C(=O)N=C3SC=CN32)cc1 [Compound 46, 5,5-bis(4-methylbenzyl)imidazo[2,1-b]thiazol-6(5H)-one] | > 300 °C
O=C1N=C2N=CC=CN2C1(Cc1cccs1)Cc1cccs1 [Compound 50, 3,3-bis(2-thienylmethyl)imidazo[1,2-a]pyrimidin-2(3H)-one] | 192 °C (dec.)
Oc1nc2ccccn2c1Cc1ccc2ccccc2c1 [Compound 52, 2-hydroxy-3-(2-naphthylmethyl)imidazo[1,2-a]pyridine] | 205 °C (dec.)
O=C1N=C2C=CC=CN2C12Cc1cc3ccccc3cc1C2 [Compound 53, spiro[imidazo[1,2-a]pyridin-2(3H)-one-3,2′-benzo[f]indan]] | 214 °C (dec.)
O=C1N=C2C=CC=CN2C1Cc1ccccc1 (stereo not shown) [Compound 54, 3-benzylimidazo[1,2-a]pyridin-2(3H)-one] | 182 °C (dec.)
C/C=C/CC1(C/C=C/C)C(=O)N=C2N=CC=CN21 [Compound 55, 3,3-di(2-butenyl)imidazo[1,2-a]pyrimidin-2(3H)-one] | 149.5 °C (dec.)
COc1ccc2c(c1)CC1(C2)C(=O)N=C2C=CC=CN21 (stereo not shown) [Compound 57, spiro[imidazo[1,2-a]pyridin-2(3H)-one-3,2′-(5′-methoxyindan)]] | 150 to 152 °C
O=C1N=C2C=CC=CN2C12Cc1ccc(I)cc1C2 (stereo not shown) [Compound 58, spiro[imidazo[1,2-a]pyridin-2(3H)-one-3,2′-(5′-iodoindan)]] | 167 to 171 °C
O=C1N=C2c3ccccc3C=CN2C12Cc1ccccc1C2 [Compound 60, spiro[imidazo[2,1-a]isoquinolin-2(3H)-one-3,2′-indan]] | 201 to 203 °C
O=C1N=C2C=CC=CN2C12Cc1cc3nsnc3cc1C2 [Compound 61, spiro[imidazo[1,2-a]pyridin-2(3H)-one-3,2′-((1,2,5-thiadiazo)[4,5-c]indan)]] | 86 to 88 °C
O=C1N=C2C=CC=CN2C12Cc1ccc(C(F)(F)F)cc1C2 (stereo not shown) [Compound 64, spiro[imidazo[1,2-a]pyridin-2(3H)-one-3,2′-(5′-trifluoromethylindan)]] | 176.5 to 179.5 °C
O=C1N=C2C=CC=CN2C12Cc1ccc3ccccc3c1C2 (stereo not shown) [Compound 65, spiro[imidazo[1,2-a]pyridin-2(3H)-one-3,2′-benzo[e]indan]] | 256 °C (dec.)
C=CCC1(CC=C)C(=O)N=C2c3ccccc3C=CN21 [Compound 68, 3,3-diallylimidazo[2,1-a]isoquinolin-2(3H)-one] | 108 to 110 °C
CCCCC1(CCCC)C(=O)N=C2CCCCN21 [Compound 73, 3,3-dibutyl-5,6,7,8-tetrahydroimidazo[1,2-a]pyridin-2(3H)-one] | 35 to 40 °C
O=C1N=C2c3ccccc3C=CN2C12CCCC2 [Compound 75, spiro[imidazo[2,1-a]isoquinolin-2(3H)-one-3,1′-cyclopentane]] | 164.5 to 167.5 °C
O=C1N=C2CCCCN2C12Cc1cc3ccccc3cc1C2 [Compound 76, spiro[5,6,7,8-tetrahydroimidazo[1,2-a]pyridin-2(3H)-one-3,2′-benzo[f]indan]] | 252.5 °C (dec.)
O=C1N=C2CCCCN2C12Cc1ccccc1C2 [Compound 77, spiro[5,6,7,8-tetrahydroimidazo[1,2-a]pyridin-2(3H)-one-3,2′-indan]] | 276.5 °C (dec.)
COC1=CC=CN2C1=NC(=O)C21CC=CC1 [Compound 82, spiro[8-methoxyimidazo[1,2-a]pyridin-2(3H)-one-3,4′-(1′-cyclopentene)]] | 200 to 202 °C
O=C1N=C2C(OCC3CC3)=CC=CN2C12CC=CC2 [Compound 83, spiro[8-cyclopropylmethyloxyimidazo[1,2-a]pyridin-2(3H)-one-3,4′-(1′-cyclopentene)]] | 134 to 137 °C

Next, values leading:

melting point | Compound
289 to 290 °C | COC(=O)c1ccc(CC2(Cc3ccc(C(=O)OC)cc3)C(=O)N=C3C=CC=CN32)cc1 [Compound 40, 3,3-bis(4-methoxycarbonylbenzyl)imidazo[1,2-a]pyridin-2(3H)-one]
> 300 °C | O=C1N=C2SC=CN2C1(Cc1ccccc1)Cc1ccccc1 [Compound 44, 5,5-dibenzylimidazo[2,1-b]thiazol-6(5H)-one]
> 300 °C | O=C1N=C2N=CC=CN2C1(Cc1ccccc1)Cc1ccccc1 [Compound 45, 3,3-dibenzylimidazo[1,2-a]pyrimidin-2(3H)-one]
264 to 267 °C | N#Cc1ccc(CC2(Cc3ccc(C#N)cc3)C(=O)N=C3SC=CN32)cc1 [Compound 47, 5,5-bis(4-cyanobenzyl)imidazo[2,1-b]thiazol-6(5H)-one]
> 300 °C | CC1=CN2C(=NC(=O)C2(Cc2ccccc2)Cc2ccccc2)S1 [Compound 48, 5,5-dibenzyl-2-methylimidazo[2,1-b]thiazol-6(5H)-one]
286 °C (dec.) | O=C1N=C2SC=CN2C1(Cc1cccs1)Cc1cccs1 [Compound 49, 5,5-bis(2-thienylmethyl)imidazo[2,1-b]thiazol-6(5H)-one]
233 to 236 °C | O=C1N=C2SCCN2C1(Cc1ccccc1)Cc1ccccc1 [Compound 51, 5,5-dibenzyl-2,3-dihydroimidazo[2,1-b]thiazol-6(5H)-one]
148 °C (dec.) | O=C1N=C2C=CC=CN2C12Cc1cccc(F)c1C2 (stereo not shown) [Compound 56, spiro[imidazo[1,2-a]pyridin-2(3H)-one-3,2′-(4′-fluoroindan)]]
247.7 °C (dec.) | N#Cc1cccc2c1CC1(C2)C(=O)N=C2C=CC=CN21 (stereo not shown) [Compound 59, spiro[imidazo[1,2-a]pyridin-2(3H)-one-3,2′-(4′-cyanoindan)]]
271.5 °C (dec.) | O=C1N=C2c3ccccc3C=CN2C12Cc1cc3nsnc3cc1C2 [Compound 62, spiro[imidazo[2,1-a]isoquinolin-2(3H)-one-3,2′-((1,2,5-thiadiazo)[4,5-c]indan)]]
195.5 °C (dec.) | O=C1N=C2N=CC=CN2C12Cc1ccccc1C2 [Compound 63, spiro[imidazo[1,2-a]pyrimidin-2(3H)-one-3,2′-indan]]
245 to 247 °C | O=C1N=C2C=CC=CN2C1(C1C=CCCC1)C1C=CCCC1 (stereo not shown) [Compound 67, 3,3-bis(2-cyclohexenyl)imidazo[1,2-a]pyridin-2(3H)-one]
178.5 to 180.5 °C | O=C1N=C2C(OCc3ccccc3)=CC=CN2C12CC=CC2 [Compound 70, spiro[8-benzyloxyimidazo[1,2-a]pyridin-2(3H)-one-3,4′-(1′-cyclopentene)]]
218 to 220 °C | O=C1N=C2CCCCN2C1(C1CCCCC1)C1CCCCC1 [Compound 72, 3,3-dicyclohexyl-5,6,7,8-tetrahydroimidazo[1,2-a]pyridin-2(3H)-one]
270.5 °C (dec.) | O=C1N=C2C3=C(C=CN2C12CCCC2)CCCC3 [Compound 74, spiro[7,8,9,10-tetrahydroimidazo[2,1-a]isoquinolin-2(3H)-one-3,1′-cyclopentane]]
293 to 296 °C | O=C1N=C2C=CC=CN2C1(Cc1ccc(Cl)cc1)Cc1ccc(Cl)cc1 [Compound 78, 3,3-bis(4-chlorobenzyl)imidazo[1,2-a]pyridin-2(3H)-one]
139 to 142 °C | C=CCC1(CC=C)C(=O)N=C2C(OCC3CC3)=CC=CN21 [Compound 79, 8-cyclopropylmethyloxy-3,3-diallylimidazo[1,2-a]pyridin-2(3H)-one]
